From the supplement of paper PMC10307832

Legend:
Test in all cases: relative viability (nuclei count vs DMSO), 5 days (fraction); higher = more cells survive
CAP-232 = compound: C[C@H]([C@@H](C(=O)N)NC(=O)[C@@H]1CSSC[C@@H](C(=O)N[C@H](C(=O)N[C@@H](C(=O)N[C@H](C(=O)N1)CCCCN)CC2=CNC3=CC=CC=C32)CC4=CC=C(C=C4)O)NC(=O)[C@@H](CC5=CC=CC=C5)N)O [CAP-232]
Summary of the method: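 Nuclei counted with MetaXpress define viability as the ratio of treated to vehicle wells, given as a median across plates. The lung cancer cell lines were in 1536-well plates, pinned with five √10-spaced library-drug doses and imaged at 4× after 5 days and Hoechst staining. Plates passed with control CV below 25% and at least one doubling.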

CAP-232 + Navitoclax = compound: C[C@H]([C@@H](C(=O)N)NC(=O)[C@@H]1CSSC[C@@H](C(=O)N[C@H](C(=O)N[C@@H](C(=O)N[C@H](C(=O)N1)CCCCN)CC2=CNC3=CC=CC=C32)CC4=CC=C(C=C4)O)NC(=O)[C@@H](CC5=CC=CC=C5)N)O [CAP-232] + CC1(C)CCC(c2ccc(Cl)cc2)=C(CN2CCN(c3ccc(C(=O)NS(=O)(=O)c4ccc(N[C@H](CCN5CCOCC5)CSc5ccccc5)c(S(=O)(=O)C(F)(F)F)c4)cc3)CC2)C1 [Navitoclax] (partner 0.5 µM)
Summary of the method: (§1)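 Lung cancer cell lines, seeded in 1536-well plates, were treated the following day by pin tool with a single drug or with five library-drug doses (not always all listed) in √10 steps on top of a fixed anchor-drug dose. Cells were fixed and nuclei stained in one step after 5 days, and nuclei were counted. Relative viability is the nuclei count for treated wells divided by that for vehicle wells, reported as medians of duplicate plates.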

CAP-232 + Dasatinib = compound: C[C@H]([C@@H](C(=O)N)NC(=O)[C@@H]1CSSC[C@@H](C(=O)N[C@H](C(=O)N[C@@H](C(=O)N[C@H](C(=O)N1)CCCCN)CC2=CNC3=CC=CC=C32)CC4=CC=C(C=C4)O)NC(=O)[C@@H](CC5=CC=CC=C5)N)O [CAP-232] + Cc1nc(Nc2ncc(C(=O)Nc3c(C)cccc3Cl)s2)cc(N2CCN(CCO)CC2)n1 [Dasatinib] (partner 0.075 µM)
Summary of the method: as §1

CAP-232 + Lapatinib = compound: C[C@H]([C@@H](C(=O)N)NC(=O)[C@@H]1CSSC[C@@H](C(=O)N[C@H](C(=O)N[C@@H](C(=O)N[C@H](C(=O)N1)CCCCN)CC2=CNC3=CC=CC=C32)CC4=CC=C(C=C4)O)NC(=O)[C@@H](CC5=CC=CC=C5)N)O [CAP-232] + CS(=O)(=O)CCNCc1ccc(-c2ccc3ncnc(Nc4ccc(OCc5cccc(F)c5)c(Cl)c4)c3c2)o1 [Lapatinib] (partner 2 µM)
Summary of the method: as §1

CAP-232 + Vorinostat = compound: C[C@H]([C@@H](C(=O)N)NC(=O)[C@@H]1CSSC[C@@H](C(=O)N[C@H](C(=O)N[C@@H](C(=O)N[C@H](C(=O)N1)CCCCN)CC2=CNC3=CC=CC=C32)CC4=CC=C(C=C4)O)NC(=O)[C@@H](CC5=CC=CC=C5)N)O [CAP-232] + O=C(CCCCCCC(=O)Nc1ccccc1)NO [Vorinostat] (partner 1 µM)
Summary of the method: as §1

| Cell Line | relative viability (CAP-232; 0.4 µM) | relative viability (CAP-232; 1.265 µM) | relative viability (CAP-232; 4 µM) | relative viability (CAP-232; 12.65 µM) | relative viability (CAP-232 + Navitoclax; first compound 0.4 µM) | relative viability (CAP-232 + Navitoclax; first compound 1.265 µM) | relative viability (CAP-232 + Navitoclax; first compound 4 µM) | relative viability (CAP-232 + Navitoclax; first compound 12.65 µM) | relative viability (CAP-232 + Dasatinib; first compound 0.4 µM) | relative viability (CAP-232 + Dasatinib; first compound 1.265 µM) | relative viability (CAP-232 + Dasatinib; first compound 4 µM) | relative viability (CAP-232 + Dasatinib; first compound 12.65 µM) | relative viability (CAP-232 + Lapatinib; first compound 0.4 µM) | relative viability (CAP-232 + Lapatinib; first compound 1.265 µM) | relative viability (CAP-232 + Lapatinib; first compound 4 µM) | relative viability (CAP-232 + Lapatinib; first compound 12.65 µM) | relative viability (CAP-232 + Vorinostat; first compound 0.4 µM) | relative viability (CAP-232 + Vorinostat; first compound 1.265 µM) | relative viability (CAP-232 + Vorinostat; first compound 4 µM) | relative viability (CAP-232 + Vorinostat; first compound 12.65 µM) |
| --- | --- | --- | --- | --- | --- | --- | --- | --- | --- | --- | --- | --- | --- | --- | --- | --- | --- | --- | --- | --- |
| NCI-H1993 | 0.954 | 0.934 | 1.09 | 0.945 | 0.961 | 0.864 | 1.15 | 0.907 | 0.619 | 0.539 | 0.682 | 0.558 | 0.877 | 0.791 | 0.915 | 0.673 | 0.702 | 0.802 | 0.791 | 0.749 |
| NCI-H460 | 1.04 | 1.01 | 1.09 | 0.777 | 1.02 | 1.36 | 1.11 | 0.542 | 0.704 | 0.478 | 0.581 | 0.419 | 1.11 | 1.02 | 1.62 | 0.773 | 1.01 | 0.865 | 1.1 | 0.363 |
| NCI-H1975 | 1.11 | 0.86 | 1.02 | 0.72 | 1.24 | 1.1 | 1.28 | 0.853 | 0.513 | 0.319 | 0.468 | 0.21 | 1.03 | 0.867 | 1.11 | 0.583 | 0.781 | 0.758 | 0.763 | 0.449 |
| SK-LU-1 | 1.09 | 1.07 | 1.12 | 0.9 | 0.911 | 0.998 | 1.12 | 0.863 | 0.174 | 0.176 | 0.158 | 0.17 | 0.869 | 0.809 | 0.8 | 0.979 | 0.744 | 0.792 | 0.761 | 0.591 |
| NCI-H322M | 1.13 | 0.86 | 0.896 | 1.16 | 1.32 | 1.26 | 1.36 | 1.13 | 0.275 | 0.237 | 0.256 | 0.34 | 0.558 | 0.492 | 0.69 | 0.589 | 0.91 | 0.894 | 0.932 | 1.11 |
| NCI-H1651 | 1.04 | 0.954 | 1.01 | 0.773 | 1.02 | 0.969 | 1.08 | 0.535 | 0.357 | 0.395 | 0.465 | 0.33 | 0.944 | 0.834 | 0.913 | 0.484 | 0.632 | 0.55 | 0.577 | 0.551 |
| HARA | 1.12 | 0.984 | 1.03 | 0.902 | 1.14 | 1.16 | 1.13 | 1.21 | 0.266 | 0.256 | 0.305 | 0.27 | 0.717 | 0.613 | 0.691 | 0.732 | 0.497 | 0.487 | 0.598 | 0.432 |
| H3255 | 0.976 | 0.946 | 1.01 | 0.769 | 0.629 | 0.426 | 0.556 | 0.242 | 0.352 | 0.353 | 0.455 | 0.338 | 0.317 | 0.226 | 0.219 | 0.0844 | 0.923 |  | 0.7 | 0.726 |
| CAL-12T | 0.917 | 0.992 | 0.995 | 0.97 | 1.05 | 1.21 | 1.3 | 0.94 | 0.32 | 0.409 | 0.521 | 0.138 | 0.528 | 0.612 | 0.644 | 0.736 | 0.805 | 0.752 | 0.832 | 0.431 |
| NCI-H1437 | 0.996 | 1.01 | 1.03 | 0.895 | 1.12 | 1.07 | 1.15 | 0.862 | 0.547 | 0.343 | 0.358 | 0.416 | 0.806 | 0.853 | 0.795 | 0.583 | 0.921 | 0.877 | 0.86 | 0.828 |
| HOP-62 | 0.998 | 0.957 | 1.1 | 0.992 | 0.792 | 0.955 | 1.17 | 0.902 | 0.703 | 0.667 | 0.655 | 0.547 | 1.06 |  | 1.33 | 0.996 | 0.589 | 0.484 | 0.676 | 0.543 |
| EPLC-272H | 0.998 | 0.909 | 1.05 | 0.915 | 1.37 | 1.29 | 1.17 | 0.964 | 0.402 | 0.306 | 0.321 | 0.386 | 1.25 | 0.86 | 1.04 | 0.971 |  | 0.615 | 0.545 | 0.158 |
| COR-L 105 | 1.05 | 0.816 | 0.992 | 0.573 | 0.748 | 0.69 | 0.796 | 0.498 | 0.337 | 0.352 | 0.273 | 0.249 | 0.333 | 0.376 | 0.354 | 0.33 | 0.871 | 0.719 | 1 | 0.637 |
| HCC-366 | 0.988 | 0.964 | 1.04 | 1.09 | 1.06 | 1.17 | 1.2 | 1.09 | 0.71 | 0.568 | 0.771 | 0.685 | 1.17 | 1.05 | 1.02 | 1 | 0.32 | 0.345 | 0.418 | 0.323 |
